{
  "source": "patent US20020169111A1",
  "about": "“Reversal of multidrug resistance in human colon carcinoma cells” (American Cyanamid Comany, priority 1998, published 2002)",
  "key": {"MCF-7 cells": {"system": "MCF-7 cells", "format": "cell-based, human", "details": "1 hour retention phase", "experimental": "(§1) All incubations were carried out in the absence or presence of FTC (1 or 5 μM)."}, "MCF-7/BCRP cells": {"system": "MCF-7/BCRP cells", "format": "cell-based, human", "details": "MCF-7/BCRP", "experimental": "as §1"}, "H460": {"system": "H460", "assay": "Sensitization of unselected cells to mitoxantrone", "format": "cell-based", "details": "H460 non small cell lung carcinoma, not selected"}, "S1-M1-3.2 cells": {"system": "S1-M1-3.2 cells", "assay": "Drug accumulation analysis with [14C] drug", "format": "cell-based, human", "details": "S1-M1-3.2 cells", "experimental": "(§2) To determine the mechanism of resistance, drug resistant and sensitive cells were incubated with radioactive analogues of antitumor agents and cell-associated radioactivity was measured by scintillation counting. Alternatively, surrogates of chemotherapeutic drugs may be used. The surrogate has no antitumor activity itself but interacts with the cancer cell proteins such as P-gp or MRP in a similar manner as an anticancer drug. The surrogate chemotherapeutic drug would have a property such as fluorescence which is useful for determining the drug resistance mechanisms such as efflux.\n(§3) Cells were plated in 60 mm dishes (1×10^6 cells per dish) or in 24 well clusters (2 ×10^5 cells per well) and allowed to grow for 1-2 days. […] Drugs used were [^14C]-mitoxantrone (Amersham, 1 or 5 μM; specific activity 66 mCi/mmol) or [^14C]-doxorubicin (Amersham, 0.5 or 3 μM; specific activity 50-62 mCi/mmol ). […] Unbound drug was removed by washing twice in ice-cold phosphate buffered saline (PBS), cells were solubilized in 2 N NaOH at 37° C. for 1-2 hours, and analyzed by scintillation counting. Results were normalized to cell protein content measured by a Lowry assay.\n(§4) The cells were then washed, solubilized, and counted in a scintillation counter. Values are mean disintegration per minute per μg protein of triplicate determinations ± standard deviation."}, "S1-B1-20 cells": {"system": "S1-B1-20 cells", "assay": "Drug accumulation analysis with [14C] drug", "format": "cell-based, human", "details": "90 minutes", "experimental": "as §2, §3, §4"}, "S1 cells": {"system": "S1 cells", "assay": "Drug accumulation analysis with [14C] drug", "format": "cell-based, human", "details": "90 minutes", "experimental": "as §2, §3, §4"}, "[1]": {"details": "1 μM [14C]-doxorubicin, 1 hour retention phase"}, "[2]": {"details": "1 μM daunorubicin, 1 hour retention phase"}},
  "data": [
    {"compound": "COc1ccc2c3c([nH]c2c1)[C@H](C=C(C)C)N1C(=O)[C@@H]2CCCN2C(=O)[C@@H]1C3", "note": "[Fumitremorgin C]", "values": [
      {"measurement": "[^14C] doxorubicin retention, 1 μM FTC", "setting": "MCF-7 cells; 1 μM [14C]-doxorubicin", "value": "10.3 ± 0.26", "unit": "DPM per microgram protein"},
      {"measurement": "[^14C] doxorubicin retention, 5 μM FTC", "setting": "MCF-7 cells; 1 μM [14C]-doxorubicin", "value": "11.0 ± 0.71", "unit": "DPM per microgram protein"},
      {"measurement": "daunorubicin retention, Channel Number (fluorescence units), 1 μM FTC", "setting": "MCF-7 cells; 1 μM daunorubicin", "value": "16.0 ± 0.98", "unit": "fluorescence units"},
      {"measurement": "daunorubicin retention, Channel Number (fluorescence units), 5 μM FTC", "setting": "MCF-7 cells; 1 μM daunorubicin", "value": "16.8 ± 1.0", "unit": "fluorescence units"},
      {"measurement": "[^14C] doxorubicin retention, 1 μM FTC", "setting": "MCF-7/BCRP cells; [1]", "value": "9.5 ± 0.63", "unit": "DPM per microgram protein"},
      {"measurement": "[^14C] doxorubicin retention, 5 μM FTC", "setting": "MCF-7/BCRP cells; [1]", "value": "9.9 ± 0.18", "unit": "DPM per microgram protein"},
      {"measurement": "daunorubicin retention, Channel Number (fluorescence units), 1 μM FTC", "setting": "MCF-7/BCRP cells; [2]", "value": "12.2 ± 1.78", "unit": "fluorescence units"},
      {"measurement": "daunorubicin retention, Channel Number (fluorescence units), 5 μM FTC", "setting": "MCF-7/BCRP cells; [2]", "value": "15.6 ± 0.94", "unit": "fluorescence units"},
      {"measurement": "increase of amount of [^14C]-doxorubicin retained compared with untreated cells", "setting": "MCF-7/BCRP cells; FTC 1 or 5 μM", "value": 1.8, "unit": "fold"},
      {"measurement": "increase of amount of daunorubicin retained compared with untreated cells", "setting": "MCF-7/BCRP cells; FTC 1 or 5 μM", "value": "1.8-2.3 fold"},
      {"measurement": "sensitization to mitoxantrone (in words)", "setting": "H460", "value": "can be sensitized to mitoxantrone"},
      {"measurement": "increase of amount of doxorubicin retained", "setting": "S1-M1-3.2 cells; 1 μM FTC", "value": 3.4, "unit": "fold"},
      {"measurement": "increase of amount of mitoxantrone retained", "setting": "S1-M1-3.2 cells; 1 μM FTC", "value": 2, "unit": "fold"},
      {"measurement": "Doxorubicin Drug Accumulation with 1 μM FTC", "setting": "S1-M1-3.2 cells; [14C] doxorubicin, 90 minutes", "value": "65 ± 17", "unit": "DPM/μg protein"},
      {"measurement": "Mitoxantrone Drug Accumulation with 1 μM FTC", "setting": "S1-M1-3.2 cells; [14C] mitoxantrone, 90 minutes", "value": "2220 ± 147", "unit": "DPM/μg protein"},
      {"measurement": "Doxorubicin Drug Accumulation with 1 μM FTC", "setting": "S1-B1-20 cells; [14C] doxorubicin", "value": "26 ± 1", "unit": "DPM/μg protein"},
      {"measurement": "Mitoxantrone Drug Accumulation with 1 μM FTC", "setting": "S1-B1-20 cells; [14C] mitoxantrone", "value": "1189 ± 53", "unit": "DPM/μg protein"},
      {"measurement": "Doxorubicin Drug Accumulation with 1 μM FTC", "setting": "S1 cells; [14C] doxorubicin", "value": "111 ± 15", "unit": "DPM/μg protein"},
      {"measurement": "Mitoxantrone Drug Accumulation with 1 μM FTC", "setting": "S1 cells; [14C] mitoxantrone", "value": "2246 ± 233", "unit": "DPM/μg protein"}
    ]}
  ]
}
